The nature of the first data set: in vitro. The note with it: human, hela cells, % viability.
The term viability denotes a read-out of living cells in per cent, often relative to untreated cells. As for `CC(Sc1ccccn1)C(=O)Nc1ccc(S(N)(=O)=O)cc1` (stereo not drawn) [CBK265579], the viability at 28.5 h, 10 µM was 97.1%.
For `C/N=C1/SC(CC(=O)Nc2cccc(C(=O)O)c2)C(=O)N1C` (stereo not drawn) [CBK265581], the viability at 28.5 h, 10 µM is 99.8%.
On the same count and under the same terms, under `O=C(O)c1cccnc1SC1CC(=O)N(c2ccc(F)cc2)C1=O` (stereo not drawn) [CBK265582] stands 110%; under `COc1c(C)cccc1C(=O)NC(=S)Nc1sc2c(c1C(N)=O)CCC2` [CBK265587], 84.4%.
Still for that read-out and setting: under `O=C(OCC#CCSc1nnc(-c2ccccc2)o1)c1ccc([N+](=O)[O-])cc1` [CBK265588] stands 107%; under `Cc1ccc(S(=O)(=O)c2cc3c(=O)n4ccccc4nc3n(CCCN3CCOCC3)c2=N)cc1` [CBK265590], 101%; under `O=C(CSc1ncn(-c2ccccc2)n1)Nc1ccccc1Cl` [CBK265593], 104%.
Same read-out and setting: then `COc1cc(/C=C2\C=C(c3ccc(-c4ccccc4)cc3)OC2=O)ccc1O` [CBK265594], with 88.5%.
With `Cc1cc2c(cc1C)NC(CC(=O)Nc1ccc(N(C)C)cc1)C(=O)N2` (stereo not drawn) [CBK265595], the viability at 28.5 h, 10 µM is 85.8%.
Still for that read-out and setting: under `COc1cc(/C=C2/SC(=S)N(CC(=O)O)C2=O)cc(Br)c1OCc1ccccn1` [CBK265598] stands 115%.
The same measure, in the same setting: under `Cc1cc(C)nc(NC(=O)C(C)Oc2ccc(Cl)cc2Cl)n1` (stereo not drawn) [CBK265600] stands 90.4%; under `O=C1N/C(=C/c2cccs2)C(=O)N1Cc1ccccc1F` [CBK265601], 109%.
Same read-out and setting: under `CC(C(=O)Nc1sc2c(c1C(=O)NCc1ccco1)CCCC2)N1C(=O)c2ccccc2C1=O` (stereo not drawn) [CBK265603] stands 86.6%; under `CCOc1ccccc1NC(=O)CCCN1C(=O)c2ccccc2C1=O` [CBK265608], 107%; under `COc1ccc(-c2nnc(SCC(=O)Nc3ccccc3[N+](=O)[O-])n2C)cc1` [CBK265609], 103%.
For `Cc1ccc(-c2csc3nc(SCC(=O)NCC4CCCO4)n(-c4ccccc4)c(=O)c23)cc1` (stereo not drawn) [CBK265610], the viability at 28.5 h, 10 µM was 82.6%.
On the same count and under the same terms, then `O=C(O)C1CC=C(Cl)CC1C(=O)Nc1ccc(Cl)cc1[N+](=O)[O-]` (stereo not drawn) [CBK265612], with 101%; and `O=C(/C=C/c1ccco1)Nc1sc2c(c1C(=O)NCc1ccco1)CCC2` [CBK265616], with 104%; and `O=C(Oc1ccc(N(C(=O)c2ccncc2)S(=O)(=O)c2cccs2)cc1)c1ccncc1` [CBK265619], with 98.7%.
Still for that read-out and setting: under `Cc1cccc(C)c1NC(=O)CSc1nnc(-c2cccnc2)n1Cc1ccccc1` [CBK265620] stands 114%; under `O=C(CSCCO)Nc1cccc2ccccc12` [CBK265623], 85.4%; under `CCOC(=O)C1=C(C)NC(=S)NC1c1ccc(O)c(OCC)c1[N+](=O)[O-]` (stereo not drawn) [CBK265624], 102%.
Still for that read-out and setting: under `COc1cccc(/C=C2/NC(=O)N(c3cccc(Cl)c3)C2=O)c1OCc1cccc(C(=O)O)c1` [CBK265626] stands 109%; under `C=CCn1c2ccccc2c2nnc(SCc3ccc([N+](=O)[O-])cc3)nc21` [CBK265630], 92.5%; under `COc1cc2c(cc1/C=C1/S/C(=N\c3ccccc3)N(CCCN3CCOCC3)C1=O)OCO2` [CBK265631], 78.7%.
`CCOC(=O)COc1ccc(/C=C2/SC(=S)N(c3cccc(C(=O)O)c3)C2=O)cc1` [CBK265632]: the viability at 28.5 h, 10 µM came to 107%.
The same measure, in the same setting: then `NC(=O)c1ccccc1NC(=S)NC(=O)c1cc2ccccc2o1` [CBK265633], with 81.3%.
As for `COc1ccc(-c2cc(=O)oc3cc(OCC(=O)c4cc5ccccc5o4)ccc23)cc1` [CBK265634], the viability at 28.5 h, 10 µM stood at 97.7%.
On the same count and under the same terms, under `Cc1ccc(S(=O)(=O)N(C(=O)c2ccncc2)c2ccc(OC(=O)c3ccncc3)cc2)c(C)c1` [CBK265635] stands 104%; under `Cc1ccc(S(=O)(=O)c2cc3c(=O)n4ccccc4nc3n(CCN3CCOCC3)c2=N)cc1` [CBK265637], 80.3%.
Still for that read-out and setting: under `Cc1cc(Cl)ccc1NC(=O)COC(=O)c1ccccc1I` [CBK265638] stands 89.6%; under `O=C(COc1ccc2c3c(c(=O)oc2c1)CCC3)Nc1ccc(S(=O)(=O)N2CCOCC2)cc1` [CBK265640], 82.4%.
On the same count and under the same terms, under `Cc1ccc(S(=O)(=O)N(C)c2c(C)ccc(S(=O)(=O)N3CCN(C)CC3)c2C)cc1` [CBK265642] stands 96.1%; under `COc1ccc(C(=O)NCC(O)CN2CCOCC2)cc1[N+](=O)[O-]` (stereo not drawn) [CBK265643], 105%.
For `COc1cc(C2C3=C(CC(C)(C)CC3=O)Nc3ncnn32)cc(OC)c1OC` (stereo not drawn) [CBK265646], the viability at 28.5 h, 10 µM is 86.2%.
Same read-out and setting: then `CCOc1ccc(-c2nn(-c3ccccc3)cc2/C=C2\SC(=S)N(CC(=O)O)C2=O)cc1F` [CBK265647], with 105%; and `N=C1NC(=O)C(CC(=O)Nc2ccc(SC(F)F)cc2)S1` (stereo not drawn) [CBK265648], with 91.1%.
On the same count and under the same terms, then `Cc1ccc(/C=C(\NC(=O)c2ccccc2)C(=O)N2CCCC2C(=O)O)cc1` (stereo not drawn) [CBK265649], with 87.6%; and `O=C(OCC=C=CSc1ccc([N+](=O)[O-])cc1)c1ccc(F)cc1` [CBK265650], with 117%.
Same read-out and setting: then `CCn1c(COc2cccc3cccnc23)nnc1SCC(=O)c1ccc(F)cc1` [CBK265656], with 86.8%; and `O=C(O)CCCn1c(-c2cccc([N+](=O)[O-])c2)nc(=S)c2c1CCCC2` [CBK265657], with 101%.
With `NS(=O)(=O)c1ccc(NC(=O)CSc2ccc3ccccc3n2)cc1` [CBK265663], the viability at 28.5 h, 10 µM stood at 74.6%.
The same measure, in the same setting: under `CCOC(=O)c1c(NC(=O)CSc2nnc3ccccn23)sc2c1CCC(C)C2` (stereo not drawn) [CBK265668] stands 89%.
The same measure, in the same setting: then `Cc1ccc(C(=O)N/C(=C\c2ccc3c(c2)OCO3)C(=O)NCC(=O)O)cc1` [CBK265669], with 109%; and `O=C(CN1C(=O)c2ccccc2C1=O)Nc1sc2c(c1C(=O)NCc1ccco1)CCCC2` [CBK265670], with 87.9%.
As for `CC(CC(=O)O)CC(=O)Nc1ccccc1C(=O)O` (stereo not drawn) [CBK265671], the viability at 28.5 h, 10 µM is 99.2%.
On the same count and under the same terms, under `O=C(CSc1nnc2scc(-c3ccccc3)n12)Nc1nsc(-c2ccccc2)n1` [CBK265672] stands 103%; under `Cc1cc2ccccc2n2c(SCC(=O)Nc3nsc(-c4ccccc4)n3)nnc12` [CBK265673], 116%.
Same read-out and setting: then `Cc1nc([N+](=O)[O-])c(N2CCN(Cc3ccccc3)CC2)n1Cc1ccccc1` [CBK265675], with 88.7%; and `Cc1ccc(-n2ncc3c(NCCc4ccc(S(N)(=O)=O)cc4)ncnc32)c(C)c1` [CBK265676], with 92.4%; and `O=C(OCC#CCSc1nnc(-c2ccncc2)o1)c1sc2ccccc2c1Cl` [CBK265677], with 94.6%.
Still for that read-out and setting: under `Cc1ccc2[nH]c(SCC(=O)Nc3cccc(NC(=O)C45CC6CC(CC(C6)C4)C5)c3)nc2c1` [CBK265679] stands 96.3%; under `O=C(CCc1ccccc1)Nc1cccc2nsnc12` [CBK265680], 85.3%.
Turning to `Cc1cc2ccccc2n2c(SCC(=O)NCCc3ccccc3)nnc12` [CBK265682], the viability at 28.5 h, 10 µM worked out at 111%.
Same read-out and setting: then `NS(=O)(=O)c1ccc(CCNC(=O)/C=C/c2ccc([N+](=O)[O-])cc2)cc1` [CBK265683], with 110%.
Same read-out and setting: under `O=C(CSCc1nc(O)c2c3c(sc2n1)CCCC3)NC1CCCCC1` [CBK265684] stands 83.5%.
Still for that read-out and setting: under `CCc1nnc(SCc2ccc(CSc3nnc(CC)n3N)cc2)n1N` [CBK265689] stands 106%; under `COc1cc(/C=C2/NC(=O)N(c3cccc(Cl)c3)C2=O)ccc1OCC(=O)Nc1ccc(F)cc1` [CBK265691], 93%; under `COC(=O)c1ccc(NC(=O)C2Cc3ccccc3CN2S(=O)(=O)c2cccs2)cc1` (stereo not drawn) [CBK265693], 92.7%.
Turning to `NS(=O)(=O)c1ccc(CCNC(=O)COc2ccc(Cl)cc2Cl)cc1` [CBK265694], the viability at 28.5 h, 10 µM came to 90.2%.
With `COc1cc(/C=C/C(=O)O)ccc1OCC(=O)Nc1ccccc1` [CBK265695], the viability at 28.5 h, 10 µM stood at 101%.
In the case of `CCN(C#N)c1nc(NC)nc(OC)n1` [CBK265697], the viability at 28.5 h, 10 µM worked out at 98.1%.
Turning to `COc1ccc(NC(=O)C(C)Sc2nc(N)cc(O)n2)cc1` (stereo not drawn) [CBK265699], the viability at 28.5 h, 10 µM was determined as 106%.
On the same count and under the same terms, then `O=C(O)/C(=C\c1ccc(Cl)cc1)NC(=O)c1ccccc1I` [CBK265701], with 90.1%.
On the same count and under the same terms, under `COc1ccccc1CNC(=O)c1cccc(C)c1[N+](=O)[O-]` [CBK265703] stands 87.8%; under `O=C(c1ccncc1)N(c1ccc2oc3c(c2c1)CCCC3)S(=O)(=O)c1cccc([N+](=O)[O-])c1` [CBK265705], 106%.
On the same count and under the same terms, under `Cc1nc(CSc2nc3sc4c(c3c(=O)n2-c2ccccc2)CCCCC4)cs1` [CBK265706] stands 110%.
Turning to `CC(C)C(C(=O)Nc1ccc(S(=O)(=O)Nc2nccs2)cc1)N1C(=O)c2ccccc2C1=O` (stereo not drawn) [CBK265707], the viability at 28.5 h, 10 µM was found to be 107%.
Still for that read-out and setting: under `NS(=O)(=O)c1ccc(CCNC(=O)/C=C/c2ccccc2[N+](=O)[O-])cc1` [CBK265709] stands 101%; under `Cc1cccc(-n2ncc3c(NCCCN4CCOCC4)ncnc32)c1` [CBK265710], 91.2%.
Same read-out and setting: under `CS(=O)(=O)CCC(C(=O)O)N1C(=O)c2ccc(C(=O)O)cc2C1=O` (stereo not drawn) [CBK265719] stands 94.5%.
As to `O=C(O)c1ccc(NC(=O)c2cc(S(=O)(=O)N3CCCCC3)cs2)cc1` [CBK265722], the viability at 28.5 h, 10 µM worked out at 101%.
Still for that read-out and setting: under `CN(C)S(=O)(=O)c1ccc(Cl)c(C(=O)Nc2cccc(O)c2)c1` [CBK265723] stands 113%; under `CN(CC(=O)O)C(=O)c1ccc(S(=O)(=O)N2CCCC2)cc1` [CBK265724], 91.8%.

The data set is the same for the next values; noted with them: human, hela cells, % viability, bulk resorufin, single well.
Take `NS(=O)(=O)c1ccc(N/C=C2\C(=O)NC(=O)N(Cc3ccccc3Cl)C2=O)cc1` [CBK265586]: the viability at 28.5 h, 10 µM was found to be 92.3%.

These data come from publication PMC12040169 (PLOS Biology, 2025).
